Tests used:
ERα = target: T1, ERα (Homo sapiens, UniProt P03372); test: ERα reporter (luciferase) transactivation assay in transfected HEK293 cells; format: cell-based; set-up: expressed in transfected cells; host or cells: HEK293; settings: sample concentration 10 μM, 24 hours, mean of at least three independent transfections
T1 sequence (P03372 1-595): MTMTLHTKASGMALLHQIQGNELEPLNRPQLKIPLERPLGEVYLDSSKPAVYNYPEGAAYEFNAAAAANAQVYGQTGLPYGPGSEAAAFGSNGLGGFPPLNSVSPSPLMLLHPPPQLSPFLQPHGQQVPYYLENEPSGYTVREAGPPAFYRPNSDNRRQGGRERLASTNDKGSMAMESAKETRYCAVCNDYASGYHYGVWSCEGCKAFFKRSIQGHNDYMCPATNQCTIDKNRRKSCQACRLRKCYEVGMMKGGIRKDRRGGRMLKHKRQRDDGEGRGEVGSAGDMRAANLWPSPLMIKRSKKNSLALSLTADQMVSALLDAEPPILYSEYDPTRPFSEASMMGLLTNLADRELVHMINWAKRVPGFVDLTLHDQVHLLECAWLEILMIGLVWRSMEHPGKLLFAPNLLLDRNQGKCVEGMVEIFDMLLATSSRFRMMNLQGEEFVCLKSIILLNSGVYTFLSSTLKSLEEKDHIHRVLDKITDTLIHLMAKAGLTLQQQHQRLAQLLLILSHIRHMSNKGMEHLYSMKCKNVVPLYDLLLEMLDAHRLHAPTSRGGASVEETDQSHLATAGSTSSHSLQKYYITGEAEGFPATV
Procedure: (§1) Determination of the Estrogen Activity of the Compounds: Cell Culture, Transfection and Reporter Assays
(§2) All other reagents were of reagent grade from Sigma or Fluka. One day before transfection, HEK293 cells were seeded in 48-well plates (70×10^3 cells per well) in phenol-free Dulbecco's modified Eagle medium supplemented with 5% delipidated fetal bovine serum (Sigma) and antibiotics. After a medium change, the cells were transfected for 4 hours with 5 ng ERα or ERβ expression vector, 75 ng reporter plasmid pERE2TATA-LUC and 20 ng control plasmid pCMVβ by the calcium phosphate method. After transfection, the cells received fresh medium containing either vehicle (0.1% v/v) or test compound (10 μM). After 24 hours, the cells were washed, lysed and luciferase and β-galactosidase activities were determined from 20 μl of lysates with the Victor^2TM reader (PerkinElmer Wallac, Turku, Finland). […] The data are means ±SEM of at least three independent transfections.

ERβ = ERβ (Homo sapiens, UniProt Q92731); test: ERβ reporter (luciferase) transactivation assay in transfected HEK293 cells; format: cell-based; set-up: expressed in transfected cells; host or cells: HEK293; settings: for ERβ receptor activation relative to 10 nM E2 corresponding 100: sample concentration 10 μM, 24 hours, mean of at least three independent transfections; for activation at 10 µM: HEK293, 24 h, read-out: ERβ receptor activation relative to 10 nM E2 corresponding 100, sample concentration 10 μM, mean of at least three independent transfections
Procedure: as §1, §2

Chain of ERβ (Q92731 whole entry): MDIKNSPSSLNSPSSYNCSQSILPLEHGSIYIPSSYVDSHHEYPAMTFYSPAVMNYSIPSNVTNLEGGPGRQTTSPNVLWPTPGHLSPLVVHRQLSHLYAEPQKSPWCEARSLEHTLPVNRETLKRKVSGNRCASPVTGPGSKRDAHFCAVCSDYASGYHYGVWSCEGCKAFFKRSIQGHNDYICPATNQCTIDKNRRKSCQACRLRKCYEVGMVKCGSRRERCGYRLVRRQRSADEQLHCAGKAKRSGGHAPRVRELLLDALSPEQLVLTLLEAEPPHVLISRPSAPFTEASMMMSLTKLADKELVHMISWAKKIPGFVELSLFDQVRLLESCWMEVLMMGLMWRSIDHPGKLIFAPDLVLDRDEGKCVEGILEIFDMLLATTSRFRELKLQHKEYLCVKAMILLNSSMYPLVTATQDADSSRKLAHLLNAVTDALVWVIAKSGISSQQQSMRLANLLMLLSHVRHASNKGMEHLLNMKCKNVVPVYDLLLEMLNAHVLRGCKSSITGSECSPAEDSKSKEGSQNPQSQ

Structure (SMILES) | ERα receptor activation relative to 10 nM E2 corresponding 100 (ERα) [%] | ERβ receptor activation relative to 10 nM E2 corresponding 100 (ERβ) [%] | activation at 10 µM (ERβ) [%]
COc1ccc(C2=NOC(Cc3ccccc3)C2)cc1 (single isomer, unassigned) [12a, 5-Benzyl-3-(4-methoxyphenyl)-4,5-dihydroisoxazole] | 55.2 | 17.2 | –
COc1ccc(C2=NOC(Cc3ccccc3)C2)cc1 (single isomer, unassigned) [12b, 5-Benzyl-3-(4-methoxyphenyl)-4,5-dihydroisoxazole] | 9.7 | 7.9 | –
COc1ccccc1CC1CC(CCc2ccccc2)=NO1 (single isomer, unassigned) [64a, 5-(2-Methoxybenzyl)-3-phenethyl-4,5-dihydroisoxazole] | 18.9 | – | 9.5
COc1ccccc1CC1CC(CCc2ccccc2)=NO1 (single isomer, unassigned) [64b, 5-(2-Methoxybenzyl)-3-phenethyl-4,5-dihydroisoxazole] | 0.4 | 6.4 | –
COc1ccc(CC2CC(CCc3ccccc3)=NO2)cc1 (single isomer, unassigned) [65a, 5-(4-Methoxybenzyl)-3-phenethyl-4,5-dihydroisoxazole] | 0.8 | 10.6 | –
COc1ccc(CC2CC(CCc3ccccc3)=NO2)cc1 (single isomer, unassigned) [65b, 5-(4-Methoxybenzyl)-3-phenethyl-4,5-dihydroisoxazole] | 16.1 | – | 13.2
Fc1ccc(CC2CC(CCc3ccccc3)=NO2)cc1 (single isomer, unassigned) [66a, 5-(4-fluorobenzyl)-3-phenethyl-4,5-dihydroisoxazole] | 99.2 | – | 11.2
Fc1ccc(CC2CC(CCc3ccccc3)=NO2)cc1 (single isomer, unassigned) [66b, 5-(4-fluorobenzyl)-3-phenethyl-4,5-dihydroisoxazole] | 28.9 | 7.4 | –
c1ccc(CCC2=NOC(Cc3cccc4ccccc34)C2)cc1 (single isomer, unassigned) [67a, 5-naphthalen-1-yl-methyl-3-phenethyl-4,5-dihydroisoxazole] | 34.1 | – | 10.5
c1ccc(CCC2=NOC(Cc3cccc4ccccc34)C2)cc1 (single isomer, unassigned) [67b, 5-naphthalen-1-yl-methyl-3-phenethyl-4,5-dihydroisoxazole] | 17.2 | 6.5 | –

The remaining lines, values ahead:

ERα receptor activation relative to 10 nM E2 corresponding 100 (ERα) [%] | ERβ receptor activation relative to 10 nM E2 corresponding 100 (ERβ) [%] | activation at 10 µM (ERβ) [%] | Structure (SMILES)
22.3 | 8.2 | – | c1ccc(CCC2=NOC(Cc3ccc4ccccc4c3)C2)cc1 (single isomer, unassigned) [68a, 5-naphthalen-2-yl-methyl-3-phenethyl-4,5-dihydroisoxazole]
13.0 | 3.8 | – | c1ccc(CCC2=NOC(Cc3ccc4ccccc4c3)C2)cc1 (single isomer, unassigned) [68b, 5-naphthalen-2-yl-methyl-3-phenethyl-4,5-dihydroisoxazole]
8.1 | −20.0 | – | CC1(c2ccccc2)CC(CCc2ccccc2)=NO1 (single isomer, unassigned) [71a, 5-Methyl-3-phenethyl-5-phenyl-4,5-dihydroisoxazole]
10.9 | −7.3 | – | CC1(c2ccccc2)CC(CCc2ccccc2)=NO1 (single isomer, unassigned) [71b, 5-Methyl-3-phenethyl-5-phenyl-4,5-dihydroisoxazole]
